Measured values as given in the supplement of paper PMC10307832.

Columns and labels:
Assay in all cases: relative viability (nuclei count vs DMSO), 5 days (fraction); higher = more cells survive
Linifanib = compound: Cc1ccc(F)c(NC(=O)Nc2ccc(-c3cccc4[nH]nc(N)c34)cc2)c1 [Linifanib]
Method in brief: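 After an overnight hold at 37 °C, lung cancer cell lines in 1536-well plates were pinned with five library-drug doses (not always all listed), each √10 from the next, on vehicle-anchored plates. The cells stayed 5 days without fresh medium, then a one-step fix, permeabilisation and Hoechst stain preceded 4× imaging and MetaXpress nuclear counts. A plate passed only with control CV under 25% and at least one doubling. Viability is the median, over plates, of treated-well nuclei relative to vehicle-well nuclei.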

Linifanib + Olaparib = compound: Cc1ccc(F)c(NC(=O)Nc2ccc(-c3cccc4[nH]nc(N)c34)cc2)c1 [Linifanib] + O=C(c1cc(Cc2n[nH]c(=O)c3ccccc23)ccc1F)N1CCN(C(=O)C2CC2)CC1 [Olaparib] (partner 8 µM)
Method in brief: (§1)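 Cells from lung cancer lines were seeded into 1536-well plates and, one day later, dosed by pin tool. Treatments were either a single drug or a fixed dose of an anchor drug with five library-drug doses (not always all listed) in √10 steps. After 5 days, nuclei were stained in a one-step fixation (final 0.05% Triton X-100, 1% formaldehyde, 1 ug/ml Hoechst) and counted on 4× images, and relative viability is the treated-to-vehicle nuclei ratio, as the median of duplicate plates.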

Linifanib + Crizotinib = compound: Cc1ccc(F)c(NC(=O)Nc2ccc(-c3cccc4[nH]nc(N)c34)cc2)c1 [Linifanib] + C[C@@H](Oc1cc(-c2cnn(C3CCNCC3)c2)cnc1N)c1c(Cl)ccc(F)c1Cl [Crizotinib] (partner 1 µM)
Method in brief: as §1

Linifanib + Lapatinib = compound: Cc1ccc(F)c(NC(=O)Nc2ccc(-c3cccc4[nH]nc(N)c34)cc2)c1 [Linifanib] + CS(=O)(=O)CCNCc1ccc(-c2ccc3ncnc(Nc4ccc(OCc5cccc(F)c5)c(Cl)c4)c3c2)o1 [Lapatinib] (partner 2 µM)
Method in brief: as §1

Linifanib + Bortezomib = compound: Cc1ccc(F)c(NC(=O)Nc2ccc(-c3cccc4[nH]nc(N)c34)cc2)c1 [Linifanib] + CC(C)C[C@H](NC(=O)[C@H](Cc1ccccc1)NC(=O)c1cnccn1)B(O)O [Bortezomib] (partner 0.002 µM)
Method in brief: as §1

Linifanib + Linsitinib = compound: Cc1ccc(F)c(NC(=O)Nc2ccc(-c3cccc4[nH]nc(N)c34)cc2)c1 [Linifanib] + C[C@]1(O)C[C@@H](c2nc(-c3ccc4ccc(-c5ccccc5)nc4c3)c3c(N)nccn32)C1 [Linsitinib] (partner 1 µM)
Method in brief: as §1

Linifanib + Pictilisib = compound: Cc1ccc(F)c(NC(=O)Nc2ccc(-c3cccc4[nH]nc(N)c34)cc2)c1 [Linifanib] + CS(=O)(=O)N1CCN(Cc2cc3nc(-c4cccc5[nH]ncc45)nc(N4CCOCC4)c3s2)CC1 [Pictilisib] (partner 1 µM)
Method in brief: as §1

Linifanib + Alpelisib = compound: Cc1ccc(F)c(NC(=O)Nc2ccc(-c3cccc4[nH]nc(N)c34)cc2)c1 [Linifanib] + Cc1nc(NC(=O)N2CCC[C@H]2C(N)=O)sc1-c1ccnc(C(C)(C)C(F)(F)F)c1 [Alpelisib] (partner 2 µM)
Method in brief: as §1

Linifanib + Foretinib = compound: Cc1ccc(F)c(NC(=O)Nc2ccc(-c3cccc4[nH]nc(N)c34)cc2)c1 [Linifanib] + COc1cc2c(Oc3ccc(NC(=O)C4(C(=O)Nc5ccc(F)cc5)CC4)cc3F)ccnc2cc1OCCCN1CCOCC1 [Foretinib] (partner 0.25 µM)
Method in brief: as §1

Linifanib + Navitoclax = compound: Cc1ccc(F)c(NC(=O)Nc2ccc(-c3cccc4[nH]nc(N)c34)cc2)c1 [Linifanib] + CC1(C)CCC(c2ccc(Cl)cc2)=C(CN2CCN(c3ccc(C(=O)NS(=O)(=O)c4ccc(N[C@H](CCN5CCOCC5)CSc5ccccc5)c(S(=O)(=O)C(F)(F)F)c4)cc3)CC2)C1 [Navitoclax] (partner 0.5 µM)
Method in brief: as §1

Linifanib + Phenformin = compound: Cc1ccc(F)c(NC(=O)Nc2ccc(-c3cccc4[nH]nc(N)c34)cc2)c1 [Linifanib] + N=C(N)NC(=N)NCCc1ccccc1 [Phenformin] (partner 250 µM)
Method in brief: as §1

Linifanib + Dasatinib = compound: Cc1ccc(F)c(NC(=O)Nc2ccc(-c3cccc4[nH]nc(N)c34)cc2)c1 [Linifanib] + Cc1nc(Nc2ncc(C(=O)Nc3c(C)cccc3Cl)s2)cc(N2CCN(CCO)CC2)n1 [Dasatinib] (partner 0.075 µM)
Method in brief: as §1

Linifanib + Pemetrexed = compound: Cc1ccc(F)c(NC(=O)Nc2ccc(-c3cccc4[nH]nc(N)c34)cc2)c1 [Linifanib] + Nc1nc2[nH]cc(CCc3ccc(C(=O)N[C@@H](CCC(=O)O)C(=O)O)cc3)c2c(=O)[nH]1 [Pemetrexed] (partner 0.2 µM)
Method in brief: as §1

Linifanib + Luminespib = compound: Cc1ccc(F)c(NC(=O)Nc2ccc(-c3cccc4[nH]nc(N)c34)cc2)c1 [Linifanib] + CCNC(=O)c1noc(-c2cc(C(C)C)c(O)cc2O)c1-c1ccc(CN2CCOCC2)cc1 [Luminespib] (partner 0.01 µM)
Method in brief: as §1

Linifanib + OSI-027 = compound: Cc1ccc(F)c(NC(=O)Nc2ccc(-c3cccc4[nH]nc(N)c34)cc2)c1 [Linifanib] + COc1cccc2cc(-c3nc([C@H]4CC[C@H](C(=O)O)CC4)n4ncnc(N)c34)[nH]c12 [OSI-027] (partner 0.5 µM)
Method in brief: as §1

NCI-H1299
relative viability (Linifanib; 0.03162 µM): 1.02
relative viability (Linifanib; 0.1 µM): 1.02
relative viability (Linifanib; 0.3162 µM): 1.03
relative viability (Linifanib + Olaparib; first compound 0.03162 µM): 0.978
relative viability (Linifanib + Olaparib; first compound 0.1 µM): 0.958
relative viability (Linifanib + Olaparib; first compound 0.3162 µM): 0.959
relative viability (Linifanib + Crizotinib; first compound 0.03162 µM): 0.899
relative viability (Linifanib + Crizotinib; first compound 0.1 µM): 0.956
relative viability (Linifanib + Crizotinib; first compound 0.3162 µM): 0.97
relative viability (Linifanib + Lapatinib; first compound 0.03162 µM): 0.951
relative viability (Linifanib + Lapatinib; first compound 0.1 µM): 0.95
relative viability (Linifanib + Lapatinib; first compound 0.3162 µM): 0.994
relative viability (Linifanib + Bortezomib; first compound 0.03162 µM): 1.03
relative viability (Linifanib + Bortezomib; first compound 0.1 µM): 1.01
relative viability (Linifanib + Bortezomib; first compound 0.3162 µM): 1.02
relative viability (Linifanib + Linsitinib; first compound 0.03162 µM): 0.975
relative viability (Linifanib + Linsitinib; first compound 0.1 µM): 0.996
relative viability (Linifanib + Linsitinib; first compound 0.3162 µM): 0.998
relative viability (Linifanib + Pictilisib; first compound 0.03162 µM): 0.575
relative viability (Linifanib + Pictilisib; first compound 0.1 µM): 0.885
relative viability (Linifanib + Pictilisib; first compound 0.3162 µM): 0.829
relative viability (Linifanib + Alpelisib; first compound 0.03162 µM): 1.11
relative viability (Linifanib + Alpelisib; first compound 0.1 µM): 1.02
relative viability (Linifanib + Alpelisib; first compound 0.3162 µM): 1.06
relative viability (Linifanib + Foretinib; first compound 0.03162 µM): 1.1
relative viability (Linifanib + Foretinib; first compound 0.1 µM): 1.11
relative viability (Linifanib + Foretinib; first compound 0.3162 µM): 1.04
relative viability (Linifanib + Navitoclax; first compound 0.03162 µM): 1.06
relative viability (Linifanib + Navitoclax; first compound 0.1 µM): 1.08
relative viability (Linifanib + Navitoclax; first compound 0.3162 µM): 1

NCI-H1563
relative viability (Linifanib; 0.03162 µM): 0.904
relative viability (Linifanib; 0.1 µM): 1.04
relative viability (Linifanib; 0.3162 µM): 1.02
relative viability (Linifanib + Crizotinib; first compound 0.03162 µM): 0.862
relative viability (Linifanib + Crizotinib; first compound 0.1 µM): 0.852
relative viability (Linifanib + Crizotinib; first compound 0.3162 µM): 0.879
relative viability (Linifanib + Phenformin; first compound 0.03162 µM): 0.669
relative viability (Linifanib + Phenformin; first compound 0.1 µM): 0.691
relative viability (Linifanib + Phenformin; first compound 0.3162 µM): 0.605
relative viability (Linifanib + Dasatinib; first compound 0.03162 µM): 0.452
relative viability (Linifanib + Dasatinib; first compound 0.1 µM): 0.484
relative viability (Linifanib + Dasatinib; first compound 0.3162 µM): 0.496
relative viability (Linifanib + Lapatinib; first compound 0.03162 µM): 0.963
relative viability (Linifanib + Lapatinib; first compound 0.1 µM): 1.05
relative viability (Linifanib + Lapatinib; first compound 0.3162 µM): 0.913
relative viability (Linifanib + Bortezomib; first compound 0.03162 µM): 0.952
relative viability (Linifanib + Bortezomib; first compound 0.1 µM): 0.87
relative viability (Linifanib + Bortezomib; first compound 0.3162 µM): 0.812
relative viability (Linifanib + Linsitinib; first compound 0.03162 µM): 1.14
relative viability (Linifanib + Linsitinib; first compound 0.1 µM): 1.33
relative viability (Linifanib + Linsitinib; first compound 0.3162 µM): 1.08
relative viability (Linifanib + Pictilisib; first compound 0.03162 µM): 0.669
relative viability (Linifanib + Pictilisib; first compound 0.1 µM): 0.665
relative viability (Linifanib + Pictilisib; first compound 0.3162 µM): 0.629
relative viability (Linifanib + Pemetrexed; first compound 0.03162 µM): 0.803
relative viability (Linifanib + Pemetrexed; first compound 0.1 µM): 0.911
relative viability (Linifanib + Pemetrexed; first compound 0.3162 µM): 0.692
relative viability (Linifanib + Luminespib; first compound 0.03162 µM): 0.558
relative viability (Linifanib + Luminespib; first compound 0.1 µM): 0.504
relative viability (Linifanib + Luminespib; first compound 0.3162 µM): 0.512
relative viability (Linifanib + Alpelisib; first compound 0.03162 µM): 0.901
relative viability (Linifanib + Alpelisib; first compound 0.1 µM): 0.956
relative viability (Linifanib + Alpelisib; first compound 0.3162 µM): 0.956
relative viability (Linifanib + Foretinib; first compound 0.03162 µM): 0.954
relative viability (Linifanib + Foretinib; first compound 0.1 µM): 0.968
relative viability (Linifanib + Foretinib; first compound 0.3162 µM): 0.887
relative viability (Linifanib + OSI-027; first compound 0.03162 µM): 0.718
relative viability (Linifanib + OSI-027; first compound 0.1 µM): 0.814
relative viability (Linifanib + OSI-027; first compound 0.3162 µM): 0.716
